Measured values: US6989435B2, “Compounds and methods to inhibit or augment an inflammatory response” (Cambridge University Technical Services Ltd., priority 1997, dated 2006)
Blank lines part the entries; values can stand above or below the substance they belong to.

Key:
[1] = tested on: chemokine-induced THP-1 migration (MCP-1, MIP1α, IL8, SDF1α); test: Trans-well THP-1 migration assay, across the chemokines tested; assay type: cell-based, human; conditions: for selectivity ratio (CC versus CXC chemokines): >1 = greater inhibition of CC chemokines, <1 = of CXC chemokines; for CC SPECIFICITY: Table 7, average inhibitory ED50 versus SDF1 and IL8 divided by average inhibitory ED50 versus MCP-1 and MIP1α
Method: To determine whether an agent inhibits a chemokine-induced activity, such as macrophage recruitment, varying amounts of the agent are mixed with cells in the presence of a known chemoattractant. […] Chemokine (such as MCP-1, MIP1α, IL8 or SDF-1α), at a concentration known to cause significant migration of THP-1 cells in the trans-well migration assay, is placed in the lower compartment (FIG. 1). […] After incubation, the cells are gently removed from the top of the filter with a pipette, 20 μl of 20 mM EDTA in simple PBS is added into each top well, and incubated for 20 minutes at 4° C. The filter is carefully flushed with media using a gentle flow, and removed. […] The media is carefully aspirated from each well, and the converted dye is solubilized by 20 μl of DMSO. Absorbance of converted dye is measured at a wavelength of 595 nm using an ELISA plate reader. The number of migrated cells in each well is then determined by interpolation of the standard curve (see also Imai et al., J. Biol. Chem., 272, 15036 (1997)). […] The framed filter was aligned with the holes in the corner of the filter frame and placed over the wells. Five×10^4 THP-1 cells in 25 μl of RPMI-1640 culture media were added to the upper compartment. Peptides were dissolved in Milli Q water and then serially diluted in culture medium. In most cases, the serially diluted peptides were added to the upper compartment of the chemotaxis chamber. […] After incubation, the cells were gently removed from the top of the filter with a pipette, 20 μl of 20 mM EDTA in PBS was added into each top well, and the mixture was incubated for 20 minutes at 4° C. The filter was then carefully flushed with media using a gentle flow, and removed. […] The media was carefully aspirated from each well, and the converted dye was solubilized by 20 μl of DMSO. Absorbance of converted dye was measured at a wavelength of 595 nm using an ELISA plate reader. […] Representative chemokines included a beta-chemokine (“CC”), MIP-1α, and two alpha-chemokines (“CXC”), IL-8 and SDF-1α. […]

[2] = molecular target: T1, Duffy Antigen Receptor for Chemokines (DARC) (Homo sapiens, UniProt Q16570); test: DARC binding: competition with 125I-labeled MCP-1 on red blood cells; conditions: for DUFFY SELECTIVITY: Table 7, estimated ka for binding to red blood cells divided by average inhibitory ED50 versus each of the chemokines
T1 sequence (Q16570 1-336): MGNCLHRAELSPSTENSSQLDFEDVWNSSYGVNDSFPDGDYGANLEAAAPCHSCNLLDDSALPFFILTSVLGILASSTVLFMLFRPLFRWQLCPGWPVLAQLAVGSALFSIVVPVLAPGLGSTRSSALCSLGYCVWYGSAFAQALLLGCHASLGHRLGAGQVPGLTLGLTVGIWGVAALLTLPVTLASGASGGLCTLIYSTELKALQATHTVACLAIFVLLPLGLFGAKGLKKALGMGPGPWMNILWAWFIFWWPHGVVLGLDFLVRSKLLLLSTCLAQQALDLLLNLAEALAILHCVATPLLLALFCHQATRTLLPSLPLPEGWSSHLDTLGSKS

[3] = tested on: MCP-1 induced THP-1 migration; test: Trans-well THP-1 migration assay, MCP-1 as chemoattractant; assay type: cell-based, human
Method: (§1) FIG. 1 is a schematic of the trans-well migration assay. In most experiments, the peptide (wavy line) is added to the upper well with about 50,000 cells (O). The upper and lower wells are separated by a 5 μm or 8 μm pore size PVP-free membrane (- - - -). Chemokine (●) is added to the lower well. After 4 hours, the number of cells that have migrated through the membrane are measured (◯ in lower well).
To determine whether an agent inhibits a chemokine-induced activity, such as macrophage recruitment, varying amounts of the agent are mixed with cells in the presence of a known chemoattractant. For example, a range of known concentrations of an agent, e.g., a chemokine peptide, is incubated with a defined number (e.g., 10^4-10^6) of human THP-1 monocyte cells in individual wells of the top compartment of a trans-well plate. Chemokine (such as MCP-1, MIP1α, IL8 or SDF-1α), at a concentration known to cause significant migration of THP-1 cells in the trans-well migration assay, is placed in the lower compartment (FIG. 1). Cells are then incubated at 37° C. for a period sufficient to allow migration, e.g., 4 hours. After incubation, the cells are gently removed from the top of the filter with a pipette, 20 μl of 20 mM EDTA in simple PBS is added into each top well, and incubated for 20 minutes at 4° C. The filter is carefully flushed with media using a gentle flow, and removed. A standard curve consisting of a two-fold dilution series of THP-1 cells (in 29 μl) is prepared to accurately quantify the number of cells that have migrated. Migrated cells are stained with 3 μl of MTT stock dye solution which is added directly into each well (5 mg/ml in RPMI-1640 without phenol red, Sigma Chemical Co.) and incubated at 37° C. for 4 hours. The media is carefully aspirated from each well, and the converted dye is solubilized by 20 μl of DMSO. Absorbance of converted dye is measured at a wavelength of 595 nm using an ELISA plate reader. The number of migrated cells in each well is then determined by interpolation of the standard curve (see also Imai et al., J. Biol. Chem., 272, 15036 (1997)).
Any method suitable for counting cells can be used, for example, counting with a hemocytometer, incubation of the cells with MTT (see above), or FACS analysis. A negative control assay is also performed, using TGF-β or another non-chemokine chemoattractant (e.g., IL1β or TNFα). To assess whether the agent is cytotoxic, the same concentrations of agent are incubated with THP-1 cells. Agents which 1) are not cytotoxic at levels which inhibit migration, 2) are ineffective at inhibiting the negative control-induced migration, and 3) reduce or inhibit chemokine-induced THP-1 migration, are agents which fall within the scope of the invention.
For this assay, THP-1 cells were maintained at a density of 4×10^5 cells per ml in RPMI-1640 supplemented with 10% fetal calf serum+20 μM 2-mercaptoethanol. Chemotaxis was induced in a 96-well disposable chemotaxis chamber fitted with a […] polycarbonate filter (PVP free, ChemoTX, Neuroprobe Inc., Cabin John). Twenty-nine μl of chemoattractant (recombinant human chemokine; 50 ng/ml, i.e., 5.9 nM) or control (100 ng/ml TGFβ) was added to the lower compartment of each well. The framed filter was aligned with the holes in the corner of the filter frame and placed over the wells. Five×10^4 THP-1 cells in 25 μl of RPMI-1640 culture media were added to the upper compartment. Peptides were dissolved in Milli Q water and then serially diluted in culture medium. In most cases, the serially diluted peptides were added to the upper compartment of the chemotaxis chamber. The chamber was incubated at 37° C. in a humidified atmosphere of 5% CO2 for 4 hours.
After incubation, the cells were gently removed from the top of the filter with a pipette, 20 μl of 20 mM EDTA in PBS was added into each top well, and the mixture was incubated for 20 minutes at 4° C. The filter was then carefully flushed with media using a gentle flow, and removed. […]

[4] = tested on: IL8 induced THP-1 migration; test: Trans-well THP-1 migration assay, IL8 as chemoattractant; assay type: cell-based, human; conditions: THP-1 migration
Method: as §1
(§2) To determine whether an agent inhibits a chemokine-induced activity, such as macrophage recruitment, varying amounts of the agent are mixed with cells in the presence of a known chemoattractant. For example, a range of known concentrations of an agent, e.g., a chemokine peptide, is incubated with a defined number (e.g., 10^4-10^6) of human THP-1 monocyte cells in individual wells of the top compartment of a trans-well plate. […] A standard curve consisting of a two-fold dilution series of THP-1 cells (in 29 μl) is prepared to accurately quantify the number of cells that have migrated. […] Absorbance of converted dye is measured at a wavelength of 595 nm using an ELISA plate reader. The number of migrated cells in each well is then determined by interpolation of the standard curve (see also Imai et al., J. Biol. Chem., 272, 15036 (1997)). […]

[5] = tested on: SDF-1α induced THP-1 migration; test: Trans-well THP-1 migration assay, SDF-1α as chemoattractant; assay type: cell-based, human; conditions: THP-1 migration
Method: as §1, §2

DUFFY SELECTIVITY [2]: 2.00
Substance: EICADPSQKWVQ [Ser7peptide 3]
selectivity ratio (CC versus CXC chemokines) [1]: 0.5
CC SPECIFICITY [1]: 0.5

IC50 ([3]; derivatives of leu4ile11peptide 3, read-out: MCP-1 inhibitory activity in the THP-1 transwell assay): 1 to 5 µM
DARC binding, in words [2]: essentially no DARC binding capacity
Substance: EICLDPKQKWIQ [Leu4ile11peptide 3]
concentrations inhibiting MCP1 induced migration [3]: around 1 μM
potency as an inhibitor of MCP-1 signaling relative to peptide 3(1-12)[MCP-1] [3]: approximately 5 fold
potency as an inhibitor of CC chemokines relative to peptide 3(1-12)[MCP-1] [1]: approximately 5 fold
selectivity ratio (CC versus CXC chemokines) [1]: 2.0
CC SPECIFICITY [1]: 2.0

Substance: EICLDPKQKWVQ [Leu4peptide 3]
increase in potency as an inhibitor of CXC chemokines compared with peptide 3(1-12)[MCP-1] [1]: approximately 4 fold
selectivity ratio (CC versus CXC chemokines) [1]: 0.37
CC SPECIFICITY [1]: 0.4

Substance: GGR [reference compound]
inhibition of THP-1 cell migration induced by MCP-1, MIP1α, IL-8 and SDF1α, in words [1]: None of these significantly inhibited

Substance: KEN [cognate tripeptide from IL8]
inhibition of IL8, in words [4]: specific and potent inhibitor
CC SPECIFICITY [1]: <0.1

Substance: KLK [cognate tripeptide from SDF1]
inhibition of SDF1, in words [5]: specific and potent inhibitor
CC SPECIFICITY [1]: <0.1

DUFFY SELECTIVITY [2]: 2.94
DARC specificity ratio / Duffy selectivity ([2]; estimated ka for association with DARC divided by the ED50 for biological activity): about 3.0
Substance: KQKWVQ [Peptide 3[7-12]]
selectivity ratio (CC versus CXC chemokines) [1]: 1.1
CC SPECIFICITY [1]: 1.0

Substance: Leu4ile11peptide 3(3-12)[MCP-1]: leu4ile11 variant of peptide 3(3-12)[MCP-1] (CLDPKKEWIQ)
affinity relative to peptide 3(1-12)[MCP-1] ([1]; in words): higher affinity peptide analog

Substance: RGD [reference compound]
inhibition of THP-1 cell migration induced by MCP-1, MIP1α, IL-8 and SDF1α, in words [1]: None of these significantly inhibited

Substance: TTT [reference compound]
inhibition of THP-1 cell migration induced by MCP-1, MIP1α, IL-8 and SDF1α, in words [1]: None of these significantly inhibited

Substance: WIQ
CC SPECIFICITY [1]: 1.0
